Experimental data: patent US9849178B2, “Combination of carotenoids and epi-lutein” (Gupron GmbH, priority 2009, dated 2017)
Where two headings read alike, the source gives them in different places.

What was measured:
[1] = Epi-lutein study: plasma levels after oral administration (gavage) for 7 consecutive days; type: in vivo, Rats, Sprague-Dawley; conditions: for Cmax: day 7, rat plasma; for AUC / AUC(0-t): rat, plasma; for AUC: read-out: AUC0-τ; for AUC(0-t): read-out: AUC0-12 h; for AUC0-12 h (dose corrected) / AUC0-τ (dose corrected) / Cmax (dose corrected): dose corrected to 0.1 mg Lutein/kg BW
Protocol: [table] Study Design: Oral administration (gavage) of Treatment I for 7 consecutive days in 5 rats followed by a 14 days wash-out period and oral administration (gavage) of Treatment II for 7 consecutive days Blood Sampling: On day 7 of treatment prior to treatment and 15 min, 1, 3, 6, 9, 12 and 24 hours after treatment. About 400 μL blood were be transferred to Vacutainer tubes containing EDTA. Whole blood samples were centrifuged, as soon as possible from the designated time of collection, at 1200 g for approximately 10 minutes. All plasma samples (at least 200 μL) were be stored deep frozen at ≦−30° C., until shipping on dry ice. [table] Plasma Analysis: Lutein, Epilutein, Zeaxanthin and Oxidized metabolites

[2] = Pharmacokinetics of lutein and zeaxanthin with/without epi-lutein after intravenous administration; type: in vivo, wistar rats
Protocol: 14 days wash-out period before this study
Subject: 3 wistar rats each group
Feeding type: intravenous administration
Group A: 4 mg lutein/Kg body weight
Group B: (2 mg lutein+2 mg epi-lutein)/Kg body weight
Group C: 4 mg zeaxanthin/Kg body weight
Group D: (2 mg zeaxanthin 2 mg epi-lutein)/Kg body weight
Blood sampling: 15, 30, 60 minutes, 3 and 6 hours after feeding

[3] = Treatment II (mixture together with epi-lutein)

With CC1=C[C@@H](O)CC(C)(C)[C@H]1/C=C/C(C)=C/C=C/C(C)=C/C=C/C=C(C)/C=C/C=C(C)/C=C/C1=C(C)C[C@@H](O)CC1(C)C [Epi-Lutein, (3R,3′S,6′R)-lutein] as the compound, how does the AUC0-12 h ([1]; Treatment II (0.147 mg lutein + 0.135 mg epi-lutein/kg BW, oral gavage), day 7) read?
Its AUC0-12 h is 3724 ng·h/mL.

What about the Cmax ([1]; Treatment II (0.147 mg lutein + 0.135 mg epi-lutein/kg BW, oral gavage)) of the same compound?
The Cmax was 428 ng/mL.

What about the AUC0-τ ([1]; Treatment II (0.147 mg lutein + 0.135 mg epi-lutein/kg BW, oral gavage), day 7, τ 24 hours) of the same compound?
Its AUC0-τ is 6286 ng·h/mL.

What does the source list for CC1=C[C@H](O)CC(C)(C)[C@H]1/C=C/C(C)=C/C=C/C(C)=C/C=C/C=C(C)/C=C/C=C(C)/C=C/C1=C(C)C[C@@H](O)CC1(C)C [Lutein, (3R,3′R,6′R)-beta, epsilon-carotene-3,3′-diol]?
increase in the pharmacokinetic parameters of lutein, dose corrected ([1]; 0.1 mg lutein/kg BW mixed with approximately 0.1 mg epi-lutein/kg BW vs single compound, time interval 0-12 hours): about 100%; Cmax ([1]; Sprague-Dawley, 0.282 mg/kg BW, Treatment I (0.282 mg lutein/kg BW, oral gavage), read-out: Cmax): 941 ng/mL; AUC ([1]; Sprague-Dawley, 0.282 mg/kg BW, Treatment I (0.282 mg lutein/kg BW, oral gavage), day 7, τ 24 hours): 18100 ng·h/mL; AUC(0-t) ([1]; Sprague-Dawley, 0.282 mg/kg BW, Treatment I (0.282 mg lutein/kg BW, oral gavage), day 7): 9780 ng·h/mL; AUC ([1]; Sprague-Dawley, Treatment II (0.147 mg lutein + 0.135 mg epi-lutein/kg BW, oral gavage), day 7, τ 24 hours): 14300 ng·h/mL; AUC(0-t) ([1]; Sprague-Dawley, Treatment II (0.147 mg lutein + 0.135 mg epi-lutein/kg BW, oral gavage), day 7): 9340 ng·h/mL; Cmax ([1]; Sprague-Dawley, Treatment II (0.147 mg lutein + 0.135 mg epi-lutein/kg BW, oral gavage), read-out: Cmax): 939 ng/mL; AUC0-12 h (dose corrected) ([1]; Treatment I (pure compound)): 3261 ng × h × ml^−1/0.1 mg Lut/kg B; AUC0-τ (dose corrected) ([1]; Treatment I (pure compound)): 6050 ng × h × ml^−1/0.1 mg Lut/kg B; Cmax (dose corrected) ([1]; Treatment I (pure compound)): 314 [ng/ml]/0.1 mg Lut/kg BW; AUC0-12 h (dose corrected) [1, 3]: 6230 ng × h × ml^−1/0.1 mg Lut/kg B; AUC0-τ (dose corrected) [1, 3]: 9560 ng × h × ml^−1/0.1 mg Lut/kg B; Cmax (dose corrected) [1, 3]: 626 [ng/ml]/0.1 mg Lut/kg BW; AUC(0-inf) ([2]; rat, 4 mg/kg, heading: AUC0-inf, wistar rats, intravenous, A 4 mg lutein/Kg, B 2 mg lutein+2 mg epi-lutein/Kg, C 4 mg zeaxanthin/Kg, D 2 mg zeaxanthin+2 mg epi-lutein/Kg, lutein (A,B) or zeaxanthin (C,D) in plasma): 21300 ng·h/mL; AUC(0-t) ([2]; rat, 4 mg/kg, heading: AUC0-t, wistar rats, intravenous, A 4 mg lutein/Kg, B 2 mg lutein+2 mg epi-lutein/Kg, C 4 mg zeaxanthin/Kg, D 2 mg zeaxanthin+2 mg epi-lutein/Kg, lutein (A,B) or zeaxanthin (C,D) in plasma): 11700 ng·h/mL; half-life ([2]; rat, 4 mg/kg, wistar rats, intravenous, A 4 mg lutein/Kg, B 2 mg lutein+2 mg epi-lutein/Kg, C 4 mg zeaxanthin/Kg, D 2 mg zeaxanthin+2 mg epi-lutein/Kg, lutein (A,B) or zeaxanthin (C,D) in plasma, read-out: T½): 5.08 h; plasma half life after treatment with epi-lutein ([2]; wistar rats, intravenous, with vs without epi-lutein): substantially prolonged

Which results are given for CC1=C(/C=C/C(C)=C/C=C/C(C)=C/C=C/C=C(C)/C=C/C=C(C)/C=C/C2=C(C)C[C@@H](O)CC2(C)C)C(C)(C)C[C@H](O)C1 [Zeaxanthin, (3R,3′R)-beta, beta carotene-3,3′-diol]?
T½ ([2]; rat, in vivo, iv): 5 h; plasma half life after treatment with epi-lutein ([2]; rat, in vivo, iv): substantially prolonged
